Series [1] concerns the target PDE-5A (Homo sapiens (Human), UniProt O76074). Description: Caliper Mobility-Shift PDE-5A Assay. It counts as biochemical. The settings on record: test compound; read-out: IC50 values for PDE-5A, PDE-5A. As to the method:
Caliper Mobility-Shift PDE-5A Assay:
A sample to be tested is precisely weighed, dissolved by adding DMSO, mixed sufficiently to form 10 mM solution.
The maximum final concentration of the compound was 10 μM. After incubation at 30° C. for 1 h, 20 μl of 70 μM EDTA was added to terminate reaction. Substrate and products were separated and analyzed by electrophoresis. Conversion rate was calculated by Caliper's Reviewer software, and inhibition rate was calculated by the following formulation, and IC50 was calculated from inhibition rate using Prism 5.0. Inhibition rate=[conversion rate (ZPE)−conversion rate (sample)]×100/[conversion rate (ZPE)−conversion rate (HPE)]
Notation: HPE: blank control without adding enzyme; ZPE: blank control without adding compound.

For series [2] the following is noted: rat, in vivo, 2 mg/kg.
Procedure: (§1) Avanafil as control drug and the compounds of the present invention (self-made) were dissolved with suitable solvents.
Instruments: API4000 LC-MS/MS
(§2) Chromatography column: Agilent XDB C18 (2.1×50 mm, 5 μm)
(§3) Blood sampling in rats: animals were fixed, tails were heated with water-bath at 10 min before each time point, about 100 μl of blood was collected via caudal vein, and the collected blood samples were placed in heparin sodium-containing anticoagulation tubes. The blood samples were centrifuged at 4° C. and 8,000 rpm for 6 min to obtain blood plasma samples, in which the blood plasma samples should be prepared with 30 min after blood sampling. The blood plasmas were stored in refrigerator with −80° C.
(§4) (1) Samples to be tested were taken out from refrigerator (−80° C.), melt at room temperature, then subjected to volution for 5 min;
(§5) (2) 20 μl of sample was precisely moved to 1.5 ml centrifuge tube;
(§6) (3) 200 μl of internal standard solution was added;
(§7) (4) After 5 min of volution, 5 min of centrifugation (12,000 rpm) was carried out;
(§8) (5) 100 μl of supernatant was precisely taken, 100 μl of water was added, subjected to volution for 5 min, and analyzed by LC-MS/MS.
(§9) Concentrations of samples to be tested (blood plasma samples) were the output results of Analyst 1.5.1 of AB SCIEX (Shanghai Aibocaisi Analytical Instruments Trading Co., Ltd.). Mean values, standard deviations and parameters such as variable coefficients were calculated by Microsoft Excel (when parameters were directly given by Analyst 1.5.1, they were not calculated). PK parameters were calculated using Pharsight Phoenix 6.1 software.
Series [3] in a line: in vivo. The note with it: Sprague-Dawley (SD), rat, iv, 1 mg/kg.
Procedure: as §1
Instruments: API4000 LC-MS/MS
as §2, §3, §4, §5, §6, §7, §8, §9

What is called IC50 is the concentration needed to halve the response being measured. By half-life is commonly meant how long it takes for the measured level to halve. Consider `COc1ccc(COc2nc(N3C4CCC3COC4)ncc2C(=O)NCc2ccccc2)cc1Cl` [Compound 2, N-benzyl-2-(3-oxa-8-azadicyclo[3.2.1]octan-8-yl)-4-(3-chloro-4-methoxybenzyloxy)pyrimidine-5-carboxamide], for which the IC50 in series [1] worked out at 4.01 nM. Besides, the “t1/2 (h) PO” value in series [2] is listed as “No”. Besides, in series [3], the half-life is 1.51 h.
